Measurements taken from US20190374627A1, “TARGET PEPTIDES FOR CANCER THERAPY AND DIAGNOSTICS” (priority 2016, published 2019).
Square brackets hold non-standard residues; d marks the D form. Ends that are not written are not given here. Met(O) = CS(=O)CC[C@H](N)C(=O)O; pS = N[C@@H](COP(=O)(O)O)C(=O)O

Experiments:
[1] = tested on: expanded lymphocyte cultures from deceased donor livers, cirrhotic livers and HCC; assay: ICS for MHC-I-pP reactivity of liver-derived lymphocyte cultures after phosphopeptide-specific expansion; type: cell-based, human; settings: for ppCTL response, Deceased Donor Liver Do 2 / ppCTL response, Deceased Donor Liver Do 3 / ppCTL response, Deceased Donor Liver Do 4 / ppCTL response, Deceased Donor Liver Do 6 / ppCTL response, End-stage Liver Cirrhosis IHL 11 / ppCTL response, End-stage Liver Cirrhosis IHL 12 / ppCTL response, End-stage Liver Cirrhosis IHL 13 / ppCTL response, End-stage Liver Cirrhosis IHL 15 / ppCTL response, HCC Distal HCC 1 / ppCTL response, HCC Tumor HCC 1 / ppCTL response, HCC Distal HCC 4 / ppCTL response, HCC Distal HCC 9 / ppCTL response, HCC Tumor HCC 9 / ppCTL response, HCC Distal HCC 12: pP-specifically expanded culture; for ppCTL response, HCC Distal HCC 1: HCC 1 Distal; for ppCTL response, HCC Tumor HCC 1: HCC 1 Tumor; for ppCTL response, HCC Distal HCC 4: HCC 4 Distal; for ppCTL response, HCC Distal HCC 9: HCC 9 Distal; for ppCTL response, HCC Tumor HCC 9: HCC 9 Tumor; for ppCTL response, HCC Distal HCC 12: HCC 12 Distal
[2] = tested on: unexpanded lymphocyte cultures (CD8^+ T cells); assay: ICS for MHC-I-pP reactivity of lymphocyte cultures without expansion (Table 23, No Expansion); settings: HH6
CD8^+ T cells (PBMCs) = assay: Intracellular cytokine staining (ICS) of PBMCs after 7 days of stimulation with MHC-I-pP (healthy donors, HH patients); type: cell-based, human; settings: for Reactive CD8^+ T cell population, HH2: HH patient HH2; for Reactive CD8^+ T cell population, HH3: HH patient HH3; for Reactive CD8^+ T cell population, HH6: HH patient HH6; for Reactive CD8^+ T cell population, HH8: HH patient HH8; for Reactive CD8^+ T cell population, HD1: Healthy donor HD1; for Reactive CD8^+ T cell population, HD4: Healthy donor HD4; for Reactive CD8^+ T cell population, HD5: Healthy donor HD5
Description: From this, CD8^+ T cell responses against newly identified MHC class I-associated phosphopeptides in healthy individuals and patients with chronic liver disease were investigated. Twenty-one of the newly identified HCC-associated HLA-A*0201-restricted phosphopeptides were selected (see Table 17) for further immunological testing in HLA-A*0201 positive patients. MHC-I-pP-specific cytotoxic CD8^+ T cell responses (ppCTL) were assessed using intracellular cytokine staining (ICS) and several cytokines and surface markers were assessed in parallel. After 7 days of stimulation with the respective MHC-I-pP and no other cytokines, CD3- and CD8-expressing T cells were stained for at least two different cytokines (IFN-γ, TNF-α) and when required CD107a expression as a marker for their cytotoxic potential.
First, peripheral blood mononuclear cells (PBMCs) from healthy donors and patients with hereditary hemochromatosis (HH) were analyzed. HH is a chronic liver disease characterized by excessive intestinal absorption of dietary iron resulting in a pathological deposition of iron in the liver. PBMCs or lymphocytes from liver tissue were extracted and specifically stimulated with (phospho-) peptides for 7 days before intracellular cytokine staining (ICS). Doublets and dead cells, using a fixable viability dye, were excluded. Lymphocytes were gated on CD3^+ and CD8^+ double positive cells and were analysed for expression of IFNγ, TNFα-, and CD107a.

[3] = tested on: expanded TIL / IHL cultures; assay: ICS for MHC-I-pP reactivity of liver-derived lymphocyte cultures after unspecific rapid expansion protocol (REP); type: cell-based, human

Substance	Reactive CD8^+ T cells, pP-specific Expansion, Do2 [1]	Reactive CD8^+ T cells, pP-specific Expansion, Do4 [1]	Reactive CD8^+ T cells, pP-specific Expansion, HH6 [1]	ppCTL response, Deceased Donor Liver Do 2 [1]	ppCTL response, Deceased Donor Liver Do 3 [1]	ppCTL response, Deceased Donor Liver Do 4 [1]	ppCTL response, Deceased Donor Liver Do 6 [1]	ppCTL response, End-stage Liver Cirrhosis IHL 11 [1]	ppCTL response, End-stage Liver Cirrhosis IHL 12 [1]	ppCTL response, End-stage Liver Cirrhosis IHL 13 [1]	ppCTL response, End-stage Liver Cirrhosis IHL 15 [1]	ppCTL response, HCC Distal HCC 1 [1]	ppCTL response, HCC Tumor HCC 1 [1]	ppCTL response, HCC Distal HCC 4 [1]	ppCTL response, HCC Distal HCC 9 [1]	ppCTL response, HCC Tumor HCC 9 [1]	ppCTL response, HCC Distal HCC 12 [1]	Reactive CD8^+ T cells, No Expansion, HH6 [2]	Reactive CD8^+ T cell population, HH2 (CD8^+ T cells (PBMCs))	Reactive CD8^+ T cell population, HH3 (CD8^+ T cells (PBMCs))	also measured
PmVTLsLNL (P[Met(O)]VTL[pS]LNL; listed as Homo sapiens)	2 (2.5-5.0% reactive CD8^-+ T cells)	1 (0.25-2.5% reactive CD8^-+ T cells)	0 (<0.25% reactive CD8^-+ T cells)	2 (2.5-5.0% reactive CD8-+ T cells)	0 (<0.25% reactive CD8-+ T cells)	2 (2.5-5.0% reactive CD8-+ T cells)	1 (0.25-2.5% reactive CD8-+ T cells)	0 (<0.25% reactive CD8-+ T cells)	0 (<0.25% reactive CD8-+ T cells)	0 (<0.25% reactive CD8-+ T cells)	0 (<0.25% reactive CD8-+ T cells)	0 (<0.25% reactive CD8-+ T cells)	0 (<0.25% reactive CD8-+ T cells)	0 (<0.25% reactive CD8-+ T cells)	0 (<0.25% reactive CD8-+ T cells)	0 (<0.25% reactive CD8-+ T cells)	0 (<0.25% reactive CD8-+ T cells)	0 (<0.25% reactive CD8^-+ T cells)	0 (<0.25% reactive CD8^-+ T cells)	0 (<0.25% reactive CD8^-+ T cells)	Reactive CD8^+ T cell population, HH6 (CD8^+ T cells (PBMCs)): 0 (<0.25% reactive CD8^-+ T cells); Reactive CD8^+ T cell population, HH8 (CD8^+ T cells (PBMCs)): 0 (<0.25% reactive CD8^-+ T cells); Reactive CD8^+ T cell population, HD1 (CD8^+ T cells (PBMCs)): 0 (<0.25% reactive CD8^-+ T cells); Reactive CD8^+ T cell population, HD4 (CD8^+ T cells (PBMCs)): 0 (<0.25% reactive CD8^-+ T cells); Reactive CD8^+ T cell population, HD5 (CD8^+ T cells (PBMCs)): 0 (<0.25% reactive CD8^-+ T cells); Reactive CD8^+ T cells, Non-specific Expansion, Do2 [3]: 0 (<0.25% reactive CD8^-+ T cells); Reactive CD8^+ T cells, Non-specific Expansion, Do4 [3]: 1 (0.25-2.5% reactive CD8^-+ T cells); Reactive CD8^+ T cells, Non-specific Expansion, HH6 [3]: 0 (<0.25% reactive CD8^-+ T cells)
RLAsYLDRV: KRT18 phosphopeptide, HLA-A*0201 (RLA[pS]YLDRV; listed as Homo sapiens)	0 (<0.25% reactive CD8^-+ T cells)	0 (<0.25% reactive CD8^-+ T cells)	0 (<0.25% reactive CD8^-+ T cells)	0 (<0.25% reactive CD8-+ T cells)	0 (<0.25% reactive CD8-+ T cells)	0 (<0.25% reactive CD8-+ T cells)	0 (<0.25% reactive CD8-+ T cells)	0 (<0.25% reactive CD8-+ T cells)	0 (<0.25% reactive CD8-+ T cells)	0 (<0.25% reactive CD8-+ T cells)	0 (<0.25% reactive CD8-+ T cells)	0 (<0.25% reactive CD8-+ T cells)	0 (<0.25% reactive CD8-+ T cells)	0 (<0.25% reactive CD8-+ T cells)	0 (<0.25% reactive CD8-+ T cells)	0 (<0.25% reactive CD8-+ T cells)	0 (<0.25% reactive CD8-+ T cells)	0 (<0.25% reactive CD8^-+ T cells)	3 (5-7.5% reactive CD8^-+ T cells)	0 (<0.25% reactive CD8^-+ T cells)	Reactive CD8^+ T cell population, HH6 (CD8^+ T cells (PBMCs)): 0 (<0.25% reactive CD8^-+ T cells); Reactive CD8^+ T cell population, HH8 (CD8^+ T cells (PBMCs)): 0 (<0.25% reactive CD8^-+ T cells); Reactive CD8^+ T cell population, HD1 (CD8^+ T cells (PBMCs)): 0 (<0.25% reactive CD8^-+ T cells); Reactive CD8^+ T cell population, HD4 (CD8^+ T cells (PBMCs)): 0 (<0.25% reactive CD8^-+ T cells); Reactive CD8^+ T cell population, HD5 (CD8^+ T cells (PBMCs)): 0 (<0.25% reactive CD8^-+ T cells); Reactive CD8^+ T cells, Non-specific Expansion, Do2 [3]: 0 (<0.25% reactive CD8^-+ T cells); Reactive CD8^+ T cells, Non-specific Expansion, Do4 [3]: 0 (<0.25% reactive CD8^-+ T cells); Reactive CD8^+ T cells, Non-specific Expansion, HH6 [3]: 1 (0.25-2.5% reactive CD8^-+ T cells)
